Reference: the supplement of paper PMC10627819

How the values were obtained:
S. pneumoniae D39V [1] = assay: fitness (endpoint OD595 vs no drug) (fraction); higher = more growth
Summary of the method: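 Fitness was defined as the optical density at the transition into stationary phase relative to the robust mean of no-drug control wells. Values were capped at 1. Cultures were started at OD595 0.01 in 384-well plates (30 µl, or 55 µl for S. pneumoniae) in TSB, LB Lennox or CY at 37 °C. OD595 was recorded every 30 min over 14 h, with the first reading subtracted as background.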

B. subtilis 168 = assay: Bliss interaction score (quartile over a dose matrix) (fitness difference); higher = more antagonism (negative = synergy)
Summary of the method: (§1)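 The Bliss score subtracts expected fitness, the product of the single-drug fitness values, from observed fitness. Fitness is plate-normalised OD595 at entry into stationary phase, relative to the robust no-drug mean and capped at 1, with single-drug fitness inferred from combinations. Summaries are quartiles over technical, biological and donor/recipient replicates.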

S. aureus Newman = assay: as above
Summary of the method: as §1

S. aureus DSM 20231 = assay: as above
Summary of the method: as §1

S. pneumoniae D39V [2] = assay: as above
Summary of the method: as §1
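Throughout, for Bliss interaction score (quartile over a dose matrix): first quartile when negative (synergy) and third quartile when positive (antagonism).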

CC[C@H]1OC(=O)[C@H](C)[C@@H](O[C@H]2C[C@@](C)(OC)[C@@H](O)[C@H](C)O2)[C@H](C)[C@@H](O[C@@H]2O[C@H](C)C[C@H](N(C)C)[C@H]2O)[C@](C)(OC)C[C@@H](C)C(=O)[C@H](C)[C@@H](O)[C@]1(C)O [Clarithromycin] + C/C(=C\C(=O)OCCCCCCCCC(=O)O)C[C@@H]1OC[C@H](C[C@@H]2O[C@H]2[C@@H](C)[C@H](C)O)[C@@H](O)[C@H]1O [Pseudomonic acid]
fitness, S. pneumoniae D39V [1], one replicate
Details	first compound 0.007812 µg/mL	first compound 0.01562 µg/mL	first compound 0.03125 µg/mL
partner 0.03 µg/mL	0.925	0.852	0.667
partner 0.06 µg/mL	0.841	0.838	0.673
partner 0.12 µg/mL	0.68	0.615	0.412

fitness, S. pneumoniae D39V [1]
Details	first compound 0.0625 µg/mL	first compound 0.07 µg/mL	first compound 0.125 µg/mL	first compound 0.14 µg/mL	first compound 0.25 µg/mL	first compound 0.28 µg/mL
partner 0.03 µg/mL	0.683	0.159	0.427	0.0976	0.258	0.0736
partner 0.06 µg/mL	–	0.12	0.399	0.102	0.174	0.0966
partner 0.12 µg/mL	0.431	0.101	0.24	0.0908	0.117	0.0699

Details	Bliss interaction score
B. subtilis 168	0.0528
S. aureus DSM 20231	0.0125
S. aureus Newman	0.0379
S. pneumoniae D39V [2]	0.0643

CC[C@H]1OC(=O)[C@H](C)[C@@H](O[C@H]2C[C@@](C)(OC)[C@@H](O)[C@H](C)O2)[C@H](C)[C@@H](O[C@@H]2O[C@H](C)C[C@H](N(C)C)[C@H]2O)[C@](C)(OC)C[C@@H](C)C(=O)[C@H](C)[C@@H](O)[C@]1(C)O [Clarithromycin] + CC1=C\[C@@H](O)CC(=O)Cc2nc(co2)C(=O)N2CCC=C2C(=O)O[C@H](C(C)C)[C@H](C)/C=C/C(=O)NC\C=C\1 [Virginiamycin M1]
fitness, S. pneumoniae D39V [1], one replicate
Details	first compound 0.007812 µg/mL	first compound 0.01562 µg/mL	first compound 0.03125 µg/mL	first compound 0.0625 µg/mL	first compound 0.125 µg/mL	first compound 0.25 µg/mL
partner 0.15 µg/mL	–	–	–	0.788	0.645	0.463
partner 0.3 µg/mL	–	–	–	0.734	0.635	0.425
partner 0.5 µg/mL	0.856	0.884	0.758	0.756	0.529	0.361
partner 1 µg/mL	0.852	0.85	0.719	0.608	0.328	0.132
partner 2 µg/mL	0.853	0.808	0.682	–	–	–

fitness, S. pneumoniae D39V [1]
Details	first compound 0.0625 µg/mL	first compound 0.07 µg/mL	first compound 0.125 µg/mL	first compound 0.14 µg/mL	first compound 0.25 µg/mL	first compound 0.28 µg/mL
partner 0.5 µg/mL	–	0.119	–	0.0772	–	0.0473
partner 1 µg/mL	–	0.118	–	0.0875	–	0.0656
partner 2 µg/mL	0.647	0.124	0.463	0.105	0.288	0.0464

Details	Bliss interaction score
B. subtilis 168	0.0359
S. aureus DSM 20231	0.0856
S. aureus Newman	0.0322
S. pneumoniae D39V [2]	0.0597

CC[C@H]1OC(=O)[C@H](C)[C@@H](O[C@H]2C[C@@](C)(OC)[C@@H](O)[C@H](C)O2)[C@H](C)[C@@H](O[C@@H]2O[C@H](C)C[C@H](N(C)C)[C@H]2O)[C@](C)(OC)C[C@@H](C)C(=O)[C@H](C)[C@@H](O)[C@]1(C)O [Clarithromycin] + CC(=O)NC[C@H]1CN(c2ccc(N3CCOCC3)c(F)c2)C(=O)O1 [Linezolid]
fitness, S. pneumoniae D39V [1], one replicate
Details	first compound 0.007812 µg/mL	first compound 0.01562 µg/mL	first compound 0.03125 µg/mL
partner 0.2 µg/mL	0.728	0.709	0.581
partner 0.4 µg/mL	0.565	0.609	0.452
partner 0.8 µg/mL	0.277	0.314	0.193

fitness, S. pneumoniae D39V [1]
Details	first compound 0.0625 µg/mL	first compound 0.07 µg/mL	first compound 0.125 µg/mL	first compound 0.14 µg/mL	first compound 0.25 µg/mL	first compound 0.28 µg/mL
partner 0.105 µg/mL	0.637	–	0.35	–	0.111	–
partner 0.2 µg/mL	–	0.0674	–	0.0794	–	0.0498
partner 0.21 µg/mL	0.533	–	0.269	–	0.0783	–
partner 0.4 µg/mL	–	0.0735	–	0.0846	–	0.0492
partner 0.42 µg/mL	0.326	–	0.163	–	0.101	–
partner 0.8 µg/mL	–	0.0543	–	0.0384	–	0.0345

Details	Bliss interaction score
B. subtilis 168	-0.0553
S. aureus DSM 20231	-0.135
S. aureus Newman	-0.119
S. pneumoniae D39V [2]	-0.0363
